Assay results as given in BindingDB's records for doi:10.1021/jm9604890 (University of Groningen, 1997).

Test: Compound was tested for intrinsic efficacy against human 5-hydroxytryptamine 1D receptor alpha measured as the reduction of forskolin-stimulated cAMP.

| Structure (SMILES) | Ki |
| --- | --- |
| NCCc1c[nH]c2ccc(OS(=O)(=O)C(F)(F)F)cc12 [Trifluoro-methanesulfonic acid 3-(2-amino-ethyl)-1H-indol-5-yl ester] | 19 nM |
| CN(C)CCc1c[nH]c2ccc(OS(=O)(=O)C(F)(F)F)cc12 [Trifluoro-methanesulfonic acid 3-(2-dimethylamino-ethyl)-1H-indol-5-yl ester] | 30 nM |
| CCCN(CCC)CCc1c[nH]c2ccc(OS(=O)(=O)C(F)(F)F)cc12 [Trifluoro-methanesulfonic acid 3-(2-dipropylamino-ethyl)-1H-indol-5-yl ester] | 36 nM |
